# Source: PubChem BioAssay (NCI)
#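 Test compounds were applied to cells in 96-well plates for 48 hours at 5 doses. GI50 marks 50% less growth. TGI marks complete inhibition of growth.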
# How the values were obtained:
# Experiment in all cases: DTP human tumour cell line panel, 48 h
# [1] = tested on: SK-OV-3 ovarian
# [2] = tested on: SR leukemia
# [3] = tested on: HL-60(TB) leukemia
# [4] = tested on: KM12 colon
# [5] = tested on: K-562 leukemia
# [6] = tested on: OVCAR-5 ovarian
# [7] = tested on: SF-295 CNS
# [8] = tested on: TK-10 renal
# [9] = tested on: UO-31 renal
# [10] = tested on: MOLT-4 leukemia
# [11] = tested on: SNB-19 CNS
# [12] = tested on: HS 578T breast
# [13] = tested on: SF-539 CNS
# [14] = tested on: SK-MEL-28 melanoma
# [15] = tested on: ACHN renal
# [16] = tested on: NCI/ADR-RES ovarian
# [17] = tested on: SW-620 colon
# [18] = tested on: SK-MEL-5 melanoma
# [19] = tested on: NCI-H226 lung
# [20] = tested on: MDA-N
# [21] = tested on: MALME-3M melanoma
# [22] = tested on: UACC-62 melanoma
# [23] = tested on: M14 melanoma
# [24] = tested on: MDA-MB-231 breast
# [25] = tested on: 786-0 renal
# [26] = tested on: SF-268 CNS
# [27] = tested on: EKVX NSCLC
# [28] = tested on: COLO 205 colon
# [29] = tested on: SN12C renal
# [30] = tested on: A498 renal
# [31] = tested on: HT29 colon
# [32] = tested on: MCF7 breast
# [33] = tested on: SK-MEL-2 melanoma
# [34] = tested on: NCI-H460 lung
# [35] = tested on: RXF 393 renal
# [36] = tested on: UACC-257 melanoma
# [37] = tested on: CCRF-CEM leukemia
# [38] = tested on: HOP-62 NSCLC
# [39] = tested on: CAKI-1 renal
# [40] = tested on: HCT-116 colon
# [41] = tested on: NCI-H23 lung
# [42] = tested on: OVCAR-3 ovarian
# [43] = tested on: OVCAR-8 ovarian
# [44] = tested on: HCT-15 colon
# [45] = tested on: BT-549 breast
# [46] = tested on: DU-145 prostate
# [47] = tested on: MDA-MB-435
# [48] = tested on: SNB-75 CNS
# [49] = tested on: RPMI-8226 leukemia
# [50] = tested on: PC-3 prostate
# [51] = tested on: LOX IMVI melanoma
# [52] = tested on: IGROV1 ovarian
# [53] = tested on: U251 CNS
# [54] = tested on: OVCAR-4 ovarian
# [55] = tested on: A549 NSCLC
# [56] = tested on: T-47D breast
# [57] = tested on: HOP-92 NSCLC
# [58] = tested on: NCI-H522 lung
# [59] = tested on: HCC-2998 colon
structure (smiles),measurement,setting,value
S=C(c1c[nH]c2ccccc12)N1CCOCC1,TGI,[1],> 100 µM
same,TGI,[2],> 100 µM
same,TGI,[3],> 100 µM
same,TGI,[4],> 100 µM
same,TGI,[5],> 100 µM
same,TGI,[6],> 100 µM
same,TGI,[7],> 100 µM
same,TGI,[8],> 100 µM
same,TGI,[9],> 100 µM
same,TGI,[10],> 100 µM
same,TGI,[11],> 100 µM
same,TGI,[12],> 100 µM
same,TGI,[13],> 100 µM
same,TGI,[14],> 100 µM
same,TGI,[15],> 100 µM
same,TGI,[16],> 100 µM
same,TGI,[17],> 100 µM
same,TGI,[18],> 100 µM
same,TGI,[19],> 100 µM
same,TGI,[20],> 100 µM
same,TGI,[21],> 100 µM
same,TGI,[22],> 100 µM
same,TGI,[23],> 100 µM
same,TGI,[24],> 100 µM
same,TGI,[25],> 100 µM
same,TGI,[26],> 100 µM
same,TGI,[27],> 100 µM
same,TGI,[28],> 100 µM
same,TGI,[29],> 100 µM
same,TGI,[30],> 100 µM
same,TGI,[31],> 100 µM
same,TGI,[32],> 100 µM
same,TGI,[33],> 100 µM
same,TGI,[34],> 100 µM
same,TGI,[35],> 100 µM
same,TGI,[36],> 100 µM
same,TGI,[37],> 100 µM
same,TGI,[38],> 100 µM
same,TGI,[39],> 100 µM
same,TGI,[40],> 100 µM
same,TGI,[41],> 100 µM
same,TGI,[42],> 100 µM
same,TGI,[43],> 100 µM
same,TGI,[44],> 100 µM
same,TGI,[45],> 100 µM
same,TGI,[46],> 100 µM
same,TGI,[47],> 100 µM
same,TGI,[48],74 µM
same,TGI,[49],> 100 µM
same,TGI,[50],> 100 µM
same,TGI,[51],> 100 µM
same,TGI,[52],> 100 µM
same,TGI,[53],> 100 µM
CCC1(CC)SCc2nc3ccccc3n21,TGI,[1],> 100 µM
same,TGI,[54],> 100 µM
same,TGI,[3],59.5 µM
same,TGI,[4],61.5 µM
same,TGI,[5],74.5 µM
same,TGI,[6],> 100 µM
same,TGI,[7],> 100 µM
same,TGI,[8],> 100 µM
same,TGI,[55],> 100 µM
same,TGI,[9],> 100 µM
same,TGI,[10],84.3 µM
same,TGI,[11],> 100 µM
same,TGI,[12],82.9 µM
same,TGI,[13],> 100 µM
same,TGI,[14],> 100 µM
same,TGI,[56],> 100 µM
same,TGI,[15],> 100 µM
same,TGI,[16],86 µM
same,TGI,[17],> 100 µM
same,TGI,[18],36.5 µM
same,TGI,[19],88.8 µM
same,TGI,[20],> 100 µM
same,TGI,[21],94.8 µM
same,TGI,[22],> 100 µM
same,TGI,[23],70.5 µM
same,TGI,[24],90.5 µM
same,TGI,[25],> 100 µM
same,TGI,[26],> 100 µM
same,TGI,[57],61.2 µM
same,TGI,[27],73.7 µM
same,TGI,[28],40.2 µM
same,TGI,[29],> 100 µM
same,TGI,[30],> 100 µM
same,TGI,[31],> 100 µM
same,TGI,[32],93.7 µM
same,TGI,[33],85.3 µM
same,TGI,[34],> 100 µM
same,TGI,[35],94.5 µM
same,TGI,[36],71.9 µM
same,TGI,[37],> 100 µM
same,TGI,[38],> 100 µM
same,TGI,[39],95.7 µM
same,TGI,[40],73.4 µM
same,TGI,[41],> 100 µM
same,TGI,[42],> 100 µM
same,TGI,[43],> 100 µM
same,TGI,[44],> 100 µM
same,TGI,[58],94.4 µM
same,TGI,[46],> 100 µM
same,TGI,[47],68 µM
same,TGI,[59],> 100 µM
same,TGI,[48],51.8 µM
same,TGI,[49],65.7 µM
same,TGI,[50],81.1 µM
same,TGI,[51],> 100 µM
same,TGI,[52],> 100 µM
same,TGI,[53],> 100 µM
CC(C)c1ccc(Nc2ccc3c(OCCCN4CCN(C)CC4)cccc3n2)cc1,GI50,[1],15.7 µM
same,TGI,[1],31.2 µM
same,GI50,[2],2.85 µM
same,TGI,[2],10.7 µM
same,GI50,[54],13.9 µM
same,TGI,[54],28.5 µM
same,GI50,[3],10.5 µM
same,TGI,[3],28.8 µM
same,GI50,[4],11.3 µM
same,TGI,[4],25.6 µM
same,GI50,[5],2.05 µM
same,TGI,[5],4.48 µM
same,GI50,[6],15.6 µM
same,TGI,[6],31.2 µM
same,GI50,[7],3.63 µM
same,TGI,[7],15.3 µM
same,GI50,[8],16.5 µM
same,TGI,[8],30.7 µM
same,GI50,[55],15.6 µM
same,TGI,[55],29.8 µM
same,GI50,[9],12.9 µM
same,TGI,[9],27.8 µM
same,GI50,[10],2.92 µM
same,TGI,[10],8.2 µM
same,GI50,[11],12.5 µM
same,TGI,[11],30 µM
same,GI50,[12],16.9 µM
same,TGI,[12],40.3 µM
same,GI50,[13],11.1 µM
same,TGI,[13],30 µM
same,GI50,[14],1.89 µM
same,TGI,[14],4.32 µM
same,GI50,[56],12.9 µM
same,TGI,[56],31.6 µM
same,GI50,[15],12.6 µM
same,TGI,[15],28 µM
same,GI50,[16],15.9 µM
same,TGI,[16],32.9 µM
same,GI50,[17],8.9 µM
same,TGI,[17],22.9 µM
same,GI50,[18],15.3 µM
same,TGI,[18],30.2 µM
same,GI50,[19],18.8 µM
same,TGI,[19],38.7 µM
same,GI50,[21],3.66 µM
same,TGI,[21],16.6 µM
same,GI50,[22],2.17 µM
same,TGI,[22],4.86 µM
same,GI50,[23],2.85 µM
same,TGI,[23],10.4 µM
same,GI50,[24],2.11 µM
same,TGI,[24],6.92 µM
same,GI50,[25],11.4 µM
same,TGI,[25],27 µM
same,GI50,[26],12.2 µM
same,TGI,[26],27.4 µM
same,GI50,[57],10.6 µM
same,TGI,[57],27.4 µM
same,GI50,[27],14 µM
same,TGI,[27],28.3 µM
same,GI50,[28],1.97 µM
same,TGI,[28],3.96 µM
same,GI50,[29],15.6 µM
same,TGI,[29],31.9 µM
same,GI50,[30],16.4 µM
same,TGI,[30],36.8 µM
same,GI50,[31],2.16 µM
same,TGI,[31],4.92 µM
same,GI50,[32],3.21 µM
same,TGI,[32],15 µM
same,GI50,[33],19.6 µM
same,TGI,[33],36.5 µM
same,GI50,[34],5.44 µM
same,TGI,[34],18 µM
same,GI50,[35],7.28 µM
same,TGI,[35],22.4 µM
same,GI50,[36],5.65 µM
same,TGI,[36],16.2 µM
same,GI50,[37],3.74 µM
same,TGI,[37],21.3 µM
same,GI50,[38],12 µM
same,TGI,[38],26.4 µM
same,GI50,[39],12.6 µM
same,TGI,[39],28.8 µM
same,GI50,[40],5.9 µM
same,TGI,[40],20.6 µM
same,GI50,[41],11.9 µM
same,TGI,[41],26.1 µM
same,GI50,[42],14.4 µM
same,TGI,[42],27.5 µM
same,GI50,[43],17.8 µM
same,TGI,[43],33.3 µM
same,GI50,[44],1.94 µM
same,TGI,[44],4.28 µM
same,GI50,[58],19.9 µM
same,TGI,[58],39.7 µM
same,GI50,[45],12.3 µM
same,TGI,[45],28.7 µM
same,GI50,[46],13.9 µM
same,TGI,[46],26.9 µM
same,GI50,[47],6.62 µM
same,TGI,[47],21.4 µM
same,GI50,[59],1.77 µM
same,TGI,[59],3.35 µM
same,GI50,[48],12.8 µM
same,TGI,[48],30 µM
same,GI50,[49],3.39 µM
same,TGI,[49],14.3 µM
same,GI50,[50],12.9 µM
same,TGI,[50],31.4 µM
same,GI50,[51],1.86 µM
same,TGI,[51],3.54 µM
same,GI50,[52],16.1 µM
same,TGI,[52],32.6 µM
same,GI50,[53],3.28 µM
same,TGI,[53],10.3 µM
